Laboratory results published in PubChem BioAssay (NCI).
Where “and” joins values, the source holds several entries; their conditions need not be identical. Equal entries are not always repeated.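 Tested at 5 concentrations; 48 h exposure; 96-well plates; endpoints linearly interpolated, else capped at highest concentration. GI50 = concentration required for 50% inhibition of growth. TGI: total growth inhibition.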

Assays:
Assay in all cases: NCI tumour cell line growth inhibition, 48 h
COLO 205 colon = test system: COLO 205 colon
HCT-116 colon = test system: HCT-116 colon
LOX IMVI melanoma = test system: LOX IMVI melanoma
SF-539 CNS = test system: SF-539 CNS
SK-MEL-5 melanoma = test system: SK-MEL-5 melanoma
SNB-19 CNS = test system: SNB-19 CNS
UACC-62 melanoma = test system: UACC-62 melanoma
HS 578T breast = test system: HS 578T breast
MCF7 breast = test system: MCF7 breast
MDA-MB-231 breast = test system: MDA-MB-231 breast

SMILES | TGI (COLO 205 colon) | TGI (HCT-116 colon) | TGI (LOX IMVI melanoma) | TGI (SF-539 CNS) | TGI (SK-MEL-5 melanoma) | TGI (SNB-19 CNS) | TGI (UACC-62 melanoma) | GI50 (HCT-116 colon) | GI50 (HS 578T breast) | TGI (HS 578T breast) | GI50 (MCF7 breast) | TGI (MCF7 breast) | GI50 (MDA-MB-231 breast) | TGI (MDA-MB-231 breast) | GI50 (SF-539 CNS) | GI50 (SNB-19 CNS)
CN(C)CCN1N=Nc2cccc3cccc1c23 | > 100 µM | > 100 µM | > 100 µM | > 100 µM | > 100 µM | > 100 µM | > 100 µM |  |  |  |  |  |  |  |  | 
CN(C)CCCNC(=O)c1cc(NC(=O)c2cc(NC(=O)CCCN3c4ccccc4C=Cc4ccccc43)cn2C)cn1C |  | > 100 µM |  | 33.5 µM |  | > 100 µM |  | 3.35 µM | 4.87 µM | 40 µM | 4.2 µM | > 100 µM | 4.04 µM | 96 µM | 5.57 µM | 6.32 µM
Cc1c2cc[n+](C)cc2c(C)c2c1[nH]c1ccc(OC(C)C)cc12 | 3.08 µM and 2.97 µM | > 35.8 µM and 20.4 µM | 21.4 µM and 26.2 µM | 9.82 µM and 12.5 µM | 3.32 µM and 4.01 µM | 5.6 µM and 14.3 µM | 8.04 µM and 12.7 µM |  |  |  |  |  |  |  |  | 0.776 µM and 1.91 µM
Nc1ccc(CCN2CCN(c3cccc(C(F)(F)F)c3)CC2)cc1 | > 100 µM | > 100 µM | > 100 µM | > 100 µM | > 100 µM | > 100 µM | > 100 µM |  |  |  |  |  |  |  |  | 
COc1cccc(/C=C\c2cc(OC)c(OC)c(OC)c2)c1 | 17.3 µM | > 100 µM |  | > 100 µM |  | > 100 µM | > 100 µM |  |  |  |  |  |  |  |  | 
CCC12CCC(O)C1N(C)CCC2Sc1ccccc1 (stereo not drawn) | > 100 µM | > 100 µM | > 100 µM | > 100 µM | > 100 µM | > 100 µM | > 100 µM |  |  |  |  |  |  |  |  | 
CC(C)SC1SCC2C(=O)N(C)C3(CC3C)C(=O)OCC(NC(=O)c3nc4ccccc4cc3O)C(=O)NC(C)C(=O)N(C)C1C(=O)N(C)C1(CC1C)C(=O)OCC(NC(=O)c1nc3ccccc3cc1O)C(=O)NC(C)C(=O)N2C (stereo not drawn) | < 0.0001 µM | > 100 µM | < 0.0001 µM | < 0.0001 µM | < 0.0001 µM |  | < 0.0001 µM |  |  |  |  |  |  | > 100 µM |  | 
COCC1N=C(c2ccc(OC)c(OCc3ccccc3)c2OC)O[C@H]1c1ccccc1 (stereo partly drawn) | 41.8 µM | 34.5 µM | 29.6 µM | 35.8 µM | 25.7 µM | > 100 µM | 51.5 µM |  |  |  |  |  |  |  |  | 
O=C(Nc1ccccc1)O/N=C1/CCCC/C1=C\c1ccccc1 | 28.2 µM | 26.6 µM | 34 µM | 31.7 µM | 25.6 µM |  | 30 µM |  |  |  |  |  |  |  |  | 
O=[N+]([O-])c1ccc2c(c1)OCCOCCOc1ccc([N+](=O)[O-])cc1OCCOCCO2 | > 100 µM | > 100 µM | > 100 µM | > 100 µM | > 100 µM | > 100 µM | > 100 µM |  |  |  |  |  |  |  |  | 
